According to ChEMBL document CHEMBL4680194, “Synthesis and biological evaluation of 1,2,4-triazole derivatives as potential neuroprotectant against ischemic brain injury” (Eur J Med Chem, 2020):
Calls of active or inactive are those of the source. The rule behind the calls is not given here.

Experiments:
[1] = Half life in Sprague-Dawley rat at 2 mg/kg, iv measured upto 24 hrs by LC-MS/MS analysis; format: ADME, organism-based; details: in vivo
[2] = tested on: PC-12; assay: Cytoprotective activity against SNP-induced cell death in rat PC12 cells assessed as increase in cell viability at 10 uM incubated for 1 hr followed by SNP stimulation and measured after 24 hrs in presence of LY294002 by MTT assay; format: functional, cell-based; details: time 25.0 hrs
[3] = tested on: Rattus norvegicus; assay: Neuroprotective activity in Sprague-Dawley rat model of middle cerebral artery occlusion-induced ischemic injury assessed as infarction volume at 10 mg/kg, ip administered TID and measured after 6 hrs by TTC staining based assay (reference value: 28.67 +/- 2.90 %); format: functional
[4] = target: T1, Nuclear factor erythroid 2-related factor 2 (Rattus norvegicus) (UniProt O54968); assay: Induction of Nrf2 nuclear translocation in rat PC-12 cells assessed as SNP-induced GSH level at 2.5 uM incubated for 1 hr followed by SNP stimulation and measured after 24 hrs (reference value: 75.78 +/- 1.74 nM/mg); format: cell-based; details: time 25.0 hrs
T1 sequence (whole entry): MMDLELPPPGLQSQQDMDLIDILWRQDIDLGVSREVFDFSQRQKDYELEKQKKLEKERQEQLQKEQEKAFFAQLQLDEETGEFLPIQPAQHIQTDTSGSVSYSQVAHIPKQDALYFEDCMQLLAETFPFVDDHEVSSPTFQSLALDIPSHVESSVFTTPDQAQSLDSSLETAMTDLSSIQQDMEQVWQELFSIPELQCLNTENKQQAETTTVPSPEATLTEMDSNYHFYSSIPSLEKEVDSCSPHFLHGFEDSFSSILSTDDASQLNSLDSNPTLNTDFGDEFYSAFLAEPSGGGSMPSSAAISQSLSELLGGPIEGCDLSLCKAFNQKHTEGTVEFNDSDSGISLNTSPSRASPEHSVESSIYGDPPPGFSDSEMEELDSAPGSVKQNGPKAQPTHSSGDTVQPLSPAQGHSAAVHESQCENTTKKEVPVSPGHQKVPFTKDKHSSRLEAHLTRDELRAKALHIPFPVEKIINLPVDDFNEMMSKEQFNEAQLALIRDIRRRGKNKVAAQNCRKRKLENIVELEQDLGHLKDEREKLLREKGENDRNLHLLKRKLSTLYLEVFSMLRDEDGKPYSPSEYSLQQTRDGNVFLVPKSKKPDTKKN

[5] = target: T1, Nuclear factor erythroid 2-related factor 2 (Rattus norvegicus); assay: Induction of Nrf2 nuclear translocation in rat PC-12 cells assessed as H2O2-induced GSH level at 5 uM incubated for 1 hr followed by H2O2 stimulation and measured after 5 hrs (reference value: 65.52 +/- 1.44 nM/mg); format: cell-based; details: time 6.0 hrs
[6] = target: T1, Nuclear factor erythroid 2-related factor 2 (Rattus norvegicus); assay: Induction of Nrf2 nuclear translocation in rat PC-12 cells assessed as SNP-induced GSH level at 10 uM incubated for 1 hr followed by SNP stimulation and measured after 24 hrs (reference value: 75.78 +/- 1.74 nM/mg); format: cell-based; details: time 25.0 hrs
[7] = tested on: PC-12; assay: Inhibition of SNP-induced mitochondrial membrane potential loss in rat PC-12 cells assessed as increase in red fluoresence at 2.5 to 10 uM incubated for 1 hr followed by SNP stimulation and measured after 24 hrs by JC-1 staining based fluorescence microscopy; format: functional, cell-based; details: dose 2.5-10 µM, time 25.0 hrs
[8] = target: T1, Nuclear factor erythroid 2-related factor 2 (Rattus norvegicus); assay: Induction of Nrf2 nuclear translocation in rat PC-12 cells assessed as H2O2-induced GSH level at 10 uM incubated for 1 hr followed by H2O2 stimulation and measured after 5 hrs (reference value: 65.52 +/- 1.44 nM/mg); format: cell-based; details: time 6.0 hrs
[9] = tested on: PC-12; assay: Antioxidant activity in rat PC-12 cells assessed as reduction in SNP-induced ROS level incubated for 1 hr followed by SNP stimulation and measured after 24 hrs by DCFH-DA staining based fluorescence microscopy; format: functional, cell-based; details: dose 2.5-10 µM, time 25.0 hrs
[10] = tested on: PC-12; assay: Inhibition of SNP-induced apoptosis in rat PC-12 cells assessed as reduction in condensed nuclei incubated for 1 hr followed by SNP stimulation and measured after 24 hrs by Hoechst 33258 staining based fluorescence microscopy; format: functional, cell-based; details: dose 2.5-10 µM, time 25.0 hrs
[11] = tested on: PC-12; assay: Effect on Nrf2 in rat PC-12 cells at 1.25 to 5 uM incubated for 24 hrs by Western blot analysis; format: functional, cell-based; details: dose 1.25-5 µM
[12] = target: T1, Nuclear factor erythroid 2-related factor 2 (Rattus norvegicus); assay: Induction of Nrf2 nuclear translocation in rat PC-12 cells assessed as H2O2-induced SOD level at 2.5 uM incubated for 1 hr followed by H2O2 stimulation and measured after 5 hrs (reference value: 29.69 +/- 1.65 U/mg); format: cell-based; details: time 6.0 hrs
[13] = Clearance in Sprague-Dawley rat at 20 mg/kg, po measured upto 24 hrs by LC-MS/MS analysis; format: ADME, organism-based; details: in vivo
[14] = target: T1, Nuclear factor erythroid 2-related factor 2 (Rattus norvegicus); assay: Induction of Nrf2 nuclear translocation in rat PC-12 cells assessed as H2O2-induced GSH-px level at 5 uM incubated for 1 hr followed by H2O2 stimulation and measured after 5 hrs (reference value: 45.92 +/- 3.64 mU/mg); format: cell-based; details: time 6.0 hrs
[15] = tested on: Rattus norvegicus; assay: Neuroprotective activity in Sprague-Dawley rat model of middle cerebral artery occlusion-induced ischemic injury assessed as infarction volume at 30 mg/kg, ip administered TID and measured after 6 hrs by TTC staining based assay (reference value: 28.67 +/- 2.90 %); format: functional
[16] = tested on: PC-12; assay: Cytoprotective activity against H2O2-induced cell death in rat PC12 cells assessed as increase in cell viability at 10 uM incubated for 1 hr followed by H2O2 stimulation and measured after 5 hrs in presence of LY294002 by MTT assay; format: functional, cell-based; details: time 6.0 hrs
[17] = Toxicity in […] assessed as body weight at 400 mg/kg, ip measured on day 1 (reference value: 24.4 to 28.4 g); format: organism-based; details: in vivo, 24 h, time 1 day
[18] = tested on: PC-12; assay: Inhibition of SNP-induced apoptosis in rat PC-12 cells assessed as effect on cell morphology incubated for 1 hr followed by SNP stimulation and measured after 24 hrs by Hoechst 33258 staining based fluorescence microscopy; format: functional; details: dose 2.5-10 µM, time 25.0 hrs
[19] = target: T1, Nuclear factor erythroid 2-related factor 2 (Rattus norvegicus); assay: Induction of Nrf2 nuclear translocation in rat PC-12 cells assessed as H2O2-induced GSH level at 2.5 uM incubated for 1 hr followed by H2O2 stimulation and measured after 5 hrs (reference value: 65.52 +/- 1.44 nM/mg); format: cell-based; details: time 6.0 hrs
[20] = tested on: PC-12; assay: Antioxidant activity in rat PC-12 cells assessed as reduction in H2O2-induced ROS level incubated for 1 hr followed by H2O2 stimulation and measured after 5 hrs by DCFH-DA staining based fluorescence microscopy; format: functional, cell-based; details: dose 2.5-10 µM, time 6.0 hrs
[21] = Toxicity in […] assessed as behavior changes at 400 mg/kg, ip observed after 12 hrs; format: organism-based; details: in vivo
[22] = Tmax in Sprague-Dawley rat at 20 mg/kg, po measured upto 24 hrs by LC-MS/MS analysis; format: ADME, organism-based; details: in vivo
[23] = target: T1, Nuclear factor erythroid 2-related factor 2 (Rattus norvegicus); assay: Induction of Nrf2 nuclear translocation in rat PC-12 cells assessed as increase in nuclear Nrf2 level at 1.25 to 5 uM incubated for 24 hrs by Western blot analysis; format: cell-based; details: dose 1.25-5 µM
[24] = target: T1, Nuclear factor erythroid 2-related factor 2 (Rattus norvegicus); assay: Induction of Nrf2 nuclear translocation in rat PC-12 cells assessed as H2O2-induced GSH level incubated for 1 hr followed by H2O2 stimulation and measured after 5 hrs; format: cell-based; details: dose 2.5-10 µM, time 6.0 hrs

COc1ccc(-c2nc(-c3ccccc3O)n(-c3ccc(S(N)(=O)=O)cc3)n2)c(O)c1
half-life [1]: 5.11 h | Activity [2]: inactive | Activity [3]: 12.59% | Activity [4]: 79.1 nM/mg | Activity [5]: 72.5 nM/mg | Activity [6]: 89.2 nM/mg | inhibition [7]: Active | Activity [8]: 80.6 nM/mg | inhibition [9]: Dose-dependent effect | inhibition [10]: Dose-dependent effect | Activity [11]: inactive | Activity [12]: 36.3 U/mg | CL/F [13]: 23.3 mL/min/kg | Activity [14]: 65.2 mU/mg | Activity [15]: 18.06% | Activity [16]: inactive | Activity [17]: 24.3 g | inhibition [18]: Dose-dependent effect | Activity [19]: 70.4 nM/mg | inhibition [20]: Dose-dependent effect | Activity [21]: Non-Toxic | Tmax [22]: 2 h | Activity [23]: Active | Activity [24]: Dose-dependent effect
